Assay [1] concerns the target CD73 activity in U138-MG cells (Homo sapiens (Human), UniProt P21589). Nature of the assay: U138-MG inhibition assay (inorganic phosphate from AMP, PiColorLock Gold). Type of assay: cell-based. The following applies: 100 μM AMP, 30 min pre-incubation, 1 hour at 37° C. As to the method: U138-MG cells from ATCC are cultured in DMEM (Gibco 31966) with 10% FBS. Cells are seeded into 96-well culture plates (5,000 cell/well) in 100 μL of media for 24 hr. Cells are washed twice with 200 μL of assay buffer (20 mM HEPES, pH 7.4; 137 mM NaCl; 5.4 mM KCl; 1.3 mM CaCl2; 4.2 mM NaHCO3; 1 mg/mL glucose) to remove residual inorganic phosphate. CD73 inhibitor is added to each well in 100 μl volume and preincubated for 30 mins at 37° C. An equal volume of AMP substrate (Sigma A1572) is added to each well at a final concentration of 100 μM and incubated at 37° C. for 1 hour. Control wells containing cells but lacking added AMP, define the assay signal equivalent to 100% inhibition of CD73 activity. Supernatant is removed for measurement of inorganic phosphate using the PiColorLock Gold kit (Abcam, ab 270004).
The IC50 values of test compounds are determined as the inflection point of the sigmoidal concentration response curve.

In assay [2] the target is human (h)CD73 (amino acids Trp27-Lys547) (Homo sapiens, UniProt P21589). The experiment in a line: CD73 inhibition assay (Malachite Green phosphate detection). Type of assay: biochemical. To be noted: 250 pM hCD73, 12.5 μM AMP, 20 min pre-incubation, absorbance 620 nm. As to the method: Compound inhibition of human (h)CD73 (amino acids Trp27-Lys547, R&D Systems 5795-EN-500) enzymatic activity was tested via the Malachite Green Phosphate Detection Kit (R&D DY996). Experiments were performed in 20 μL Tris buffer (25 mM Tris pH 7.5, 5 mM MgCl2, 0.002% Tween20), with 250 pM of hCD73. Test compounds of interest were prepared in a threefold serial dilution in DMSO and added to the assay to give the appropriate final concentration, with the assay DMSO concentration being 1%. Compounds were pre-incubated for 20 minutes with hCD73 in a 384 well clear plate (Greiner 781101), followed by the addition of adenosine monophosphate (AMP) to 12.5 μM. The enzymatic reaction was carried out for 20 min at room temperature. 5 μL of Malachite kit reagent A was added to stop the reaction (contains 3M H2SO4) and after 10 min, 5 μL of Malachite kit reagent B was added (Malachite Green). After 30 min, absorbance at 620 nm was read on a BMG Pherastar FSX.
Data were normalised to measurements in the absence of competing compound (0% inhibition) and in the presence of 10 μM control compound (100% inhibition).

Assay [3] has as its target CD73 in whole blood (Homo sapiens (Human), UniProt P21589). The experiment in a line: Whole blood AMP Glo assay. Type of assay: cell-based. To be noted: whole blood of healthy volunteers, 10 μM AMP, 30 min pre-incubation, 15 min at 37° C., levamisole 1.5 mM. As to the method: Blood is drawn from healthy volunteers by venepuncture and anti-coagulated with Lithium Heparin (10 IU/mi). 150 μl of blood is added to U-bottom polypropylene 96-well assay plates pre-filled with 20 μl of compound dilutions prepared in RPMI also containing the Tissue Non-specific Alkaline Phosphatase inhibitor Levamisole (final assay concentration 1.5 mM). Control wells to define uninhibited CD73 contain DMSO in place of compound. Control wells to define complete stabilization of AMP attributable to CD73 contain LY3475070 (CAS: 2375815-63-5) at 30 μM final assay concentration.
Compounds are pre-incubated with whole blood at 37° C. for 30 minutes. Following this, AMP is added in a 30 μl volume for a final assay concentration of 10 μM, mixed, and the plates are incubated for 15 minutes at 37° C. Final DMSO concentration/well is 0.6% and final volume/well is 200 μL. After incubating with AMP, the plates are placed on ice and then centrifuged at 2000 g for 10 minutes at 4° C. Plasma is removed and then diluted 1:10 with pre-chilled HBSS (Ca2+& Mg2+free) and kept on ice.
The stabilized AMP concentration in diluted plasma is measured using AMP-Glo kit (Promega), in parallel with a standard curve of known AMP concentrations, with a final volume of 40 μl in white flat bottom half-well 96-well plates (Corning). Signal is measured by Luminescence. The IC50 values of test compounds are determined as the inflection point of the sigmoidal concentration response curve.

Chain of CD73 activity in U138-MG cells (P21589 27-574): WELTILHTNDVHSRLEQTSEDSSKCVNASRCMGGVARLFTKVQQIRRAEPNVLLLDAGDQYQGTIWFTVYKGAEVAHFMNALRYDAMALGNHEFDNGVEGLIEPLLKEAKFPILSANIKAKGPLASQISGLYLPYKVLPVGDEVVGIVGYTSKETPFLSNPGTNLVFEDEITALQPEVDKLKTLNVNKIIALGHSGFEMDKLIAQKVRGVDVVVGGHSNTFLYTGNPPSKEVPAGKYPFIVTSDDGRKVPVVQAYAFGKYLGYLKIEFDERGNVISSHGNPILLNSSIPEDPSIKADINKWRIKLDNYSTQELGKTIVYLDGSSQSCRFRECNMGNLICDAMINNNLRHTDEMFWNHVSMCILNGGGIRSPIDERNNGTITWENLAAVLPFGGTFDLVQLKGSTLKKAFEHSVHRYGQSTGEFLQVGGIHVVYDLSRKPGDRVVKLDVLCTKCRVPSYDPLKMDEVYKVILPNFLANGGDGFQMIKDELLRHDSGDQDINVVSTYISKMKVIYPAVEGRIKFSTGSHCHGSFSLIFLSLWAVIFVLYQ
Chain of CD73 in whole blood (P21589 27-574): as above

In assay [1], `CC1(C)CN(c2ncc(I)n3nc(-c4c[nH]c(=O)[nH]c4=O)cc23)CC1(F)F` [Example 25.12, 5-[4-(3,3-difluoro-4,4-dimethyl-pyrrolidin-1-yl)-7-iodo-pyrazolo[1,5-a]pyrazin-2-yl]-1H-pyrimidine-2,4-dione] came in with a concentration for half-maximal inhibition (IC50) of 0.038 µM.
Take `CC1(C)CN(c2ccnc3sc(-c4c[nH]c(=O)[nH]c4=O)cc23)CC1(F)F` [Example 14.1, 5-[4-(3,3-Difluoro-4,4-dimethyl-pyrrolidin-1-yl)thieno[2,3-b]pyridin-2-yl]-1H-pyrimidine-2,4-dione]: the half-inhibitory concentration (IC50) was determined as 1.32 µM in assay [1] and 0.256 µM in assay [2].
For `O=c1[nH]cc(-c2cc3c(N4CC(F)(F)C5(CC5)C4)nccn3n2)c(=O)[nH]1` [Example 25.2, 5-[4-(7,7-Difluoro-5-azaspiro[2.4]heptan-5-yl)pyrazolo[1,5-a]pyrazin-2-yl]-1H-pyrimidine-2,4-dione], in that order: 0.0588 µM and 0.0837 µM.
On to `Cc1nc(N2CC(C)(C)C(F)(F)C2)c2cc(-c3c[nH]c(=O)[nH]c3=O)nn2c1Cl` [Example 25.15, 5-[7-Chloro-4-(3,3-difluoro-4,4-dimethyl-pyrrolidin-1-yl)-6-methyl-pyrazolo[1,5-a]pyrazin-2-yl]-1H-pyrimidine-2,4-dione], for which it took 0.018 µM to reach half-maximal inhibition in assay [1] (IC50).
In the case of `O=c1[nH]cc(-c2cc3c(N4CCC5(COC5)C4)nccn3n2)c(=O)[nH]1` [Example 25.4, 5-[4-(2-oxa-7-azaspiro[3.4]octan-7-yl)pyrazolo[1,5-a]pyrazin-2-yl]-1H-pyrimidine-2,4-dione], the 50% inhibitory concentration (IC50) in assay [1] came out at 0.115 µM; in assay [2] it was 0.141 µM.
For `O=c1[nH]cc(-c2cc3c(N4CC(O)C(F)(F)C4)nccn3n2)c(=O)[nH]1` (stereo not drawn) [Example 25.5, 5-[4-(3,3-difluoro-4-hydroxy-pyrrolidin-1-yl)pyrazolo[1,5-a]pyrazin-2-yl]-1H-pyrimidine-2,4-dione] the same measures were 0.17 µM and 0.0719 µM.
For `CN1CCOC(COC2CN(c3nccn4nc(-c5c[nH]c(=O)[nH]c5=O)cc34)CC2(F)F)C1` (stereo not drawn) [Example 25.6, 5-[4-[3,3-difluoro-4-[(4-methylmorpholin-2-yl)methoxy]pyrrolidin-1-yl]pyrazolo[1,5-a]pyrazin-2-yl]-1H-pyrimidine-2,4-dione] the same measures were 0.046 µM and 0.099 µM.
As for `CC1(C)CCN(c2ncc(Cl)n3nc(-c4c[nH]c(=O)[nH]c4=O)cc23)C1` [Example 25.16, 5-[7-chloro-4-(3,3-dimethylpyrrolidin-1-yl)pyrazolo[1,5-a]pyrazin-2-yl]-1H-pyrimidine-2,4-dione], the IC50 in assay [1] worked out at 0.011 µM; in assay [3], 0.078 µM.
For the compound `O=c1[nH]cc(-c2cc3c(NCc4ccc(Cl)cc4)ncnc3o2)c(=O)[nH]1` [Example 19.2, 5-[4-[(4-Chlorophenyl)methylamino]furo[2,3-d]pyrimidin-6-yl]-1H-pyrimidine-2,4-dione], the IC50 in assay [2] was 9.73 µM.
For the compound `Cc1cnc(N2CC(C)(C)C(F)(F)C2)c2cc(-c3c[nH]c(=O)[nH]c3=O)nn12` [Example 25.11, 5-[4-(3,3-difluoro-4,4-dimethyl-pyrrolidin-1-yl)-7-methyl-pyrazolo[1,5-a]pyrazin-2-yl]-1H-pyrimidine-2,4-dione], the values for the IC50 in assay [1] and in assay [3] were 0.023 µM and 0.2 µM, respectively.
Consider `CC(C)NC(=O)OC1CN(c2ncnc3oc(-c4c[nH]c(=O)[nH]c4=O)cc23)CC1(F)F` (stereo not drawn) [Example 22.2, [1-[6-(2,4-Dioxo-1H-pyrimidin-5-yl)furo[2,3-d]pyrimidin-4-yl]-4,4-difluoro-pyrrolidin-3-yl]N-isopropylcarbamate], for which the values for the IC50 in assay [1] and in assay [2] were 0.0549 µM and 0.17 µM, respectively.
On to `O=c1[nH]cc(-c2cc3c(N4CC(OCCN5CCOCC5)C(F)(F)C4)nccn3n2)c(=O)[nH]1` (stereo not drawn) [Example 25.7, 5-[4-[3,3-difluoro-4-(2-morpholinoethoxy)pyrrolidin-1-yl]pyrazolo[1,5-a]pyrazin-2-yl]-1H-pyrimidine-2,4-dione], for which the half-inhibitory concentration (IC50) in assay [1] was 0.065 µM; in assay [2] it was 0.132 µM.
For `COC1CN(c2nccn3nc(-c4c[nH]c(=O)[nH]c4=O)cc23)CC1(F)F` (stereo not drawn) [Example 25.3, 5-[4-(3,3-difluoro-4-methoxy-pyrrolidin-1-yl)pyrazolo[1,5-a]pyrazin-2-yl]-1H-pyrimidine-2,4-dione] the same measures were 0.091 µM and 0.0547 µM.
For `CC1(C)CN(c2ncnc3nc(-c4c[nH]c(=O)[nH]c4=O)sc23)CC1(F)F` [Example 6.1, 5-[7-(3,3-difluoro-4,4-dimethyl-pyrrolidin-1-yl)thiazolo[4,5-d]pyrimidin-2-yl]-1H-pyrimidine-2,4-dione], in that order: 0.066 µM and 0.094 µM.
In assay [2], `O=c1[nH]cc(-c2cc3c(N4CCC(OCCN5CCCCC5)C4)nccc3s2)c(=O)[nH]1` (stereo not drawn) [Example 9, 5-[4-[3-[2-(1-Piperidyl)ethoxy]pyrrolidin-1-yl]thieno[3,2-c]pyridin-2-yl]-1H-pyrimidine-2,4-dione] had an IC50 of 0.283 µM.
Turning to `COC1CN(c2ncc(F)c3nn(-c4c[nH]c(=O)[nH]c4=O)cc23)CC1(F)F` (stereo not drawn) [Example 26.2, 5-[4-(3,3-difluoro-4-methoxy-pyrrolidin-1-yl)-7-fluoro-pyrazolo[4,3-c]pyridin-2-yl]-1H-pyrimidine-2,4-dione], the IC50 in assay [1] was determined as 0.012 µM; in assay [2], 0.0433 µM.
For `O=c1[nH]cc(-c2cc3c(N4CCC(OCc5ccccc5)C4)ncnc3s2)c(=O)[nH]1` (stereo not drawn) [Example 4.2, 5-[4-(3-Benzyloxypyrrolidin-1-yl)thieno[2,3-d]pyrimidin-6-yl]-1H-pyrimidine-2,4-dione], the IC50 in assay [1] stood at 3.14 µM; in assay [2], 0.197 µM.
For `CC1(C)CN(c2ncnc3sc(-c4c[nH]c(=O)[nH]c4=O)cc23)C1` [Example 1.2, 5-[4-(3,3-Dimethylazetidin-1-yl)thieno[2,3-d]pyrimidin-6-yl]-1H-pyrimidine-2,4-dione] the same measures were 1.01 µM and 0.428 µM.
Compound `O=c1[nH]cc(-n2cc3c(N4C[C@@H]5COC[C@H]5C4)ncnc3n2)c(=O)[nH]1` [Example 13.10, 5-[4-[(3aR,6aR)-1,3,3a,4,6,6a-Hexahydrofuro[3,4-c]pyrrol-5-yl]pyrazolo[3,4-d]pyrimidin-2-yl]-5H-pyrimidine-2,4-dione] displayed a half-inhibitory concentration (IC50) in assay [1] of 2.5 µM.
`CN1CCOC(COC2CN(c3ncc(F)c4nn(-c5c[nH]c(=O)[nH]c5=O)cc34)CC2(F)F)C1` (stereo not drawn) [Example 26.6, 5-[4-[3,3-difluoro-4-[(4-methylmorpholin-2-yl)methoxy]pyrrolidin-1-yl]-7-fluoro-pyrazolo[4,3-c]pyridin-2-yl]-1H-pyrimidine-2,4-dione]: the IC50 was determined as 0.011 µM in assay [1] and 0.059 µM in assay [2].
For `O=c1[nH]cc(-n2cc3c(N4CC(O)C(F)(F)C4)ncc(F)c3n2)c(=O)[nH]1` (stereo not drawn) [Example 26.3, 5-[4-(3,3-difluoro-4-hydroxy-pyrrolidin-1-yl)-7-fluoro-pyrazolo[4,3-c]pyridin-2-yl]-1H-pyrimidine-2,4-dione], in that order: 0.016 µM and 0.0351 µM.
For `CC(C)NC(=O)OCC(F)(F)CNc1ncnc2oc(-c3c[nH]c(=O)[nH]c3=O)cc12` [Example 20, [3-[[6-(2,4-Dioxo-1H-pyrimidin-5-yl)furo[2,3-d]pyrimidin-4-yl]amino]-2,2-difluoro-propyl]N-isopropylcarbamate], in that order: 0.744 µM and 0.834 µM.

Broadly, the IC50 is the point on the concentration scale where inhibition reaches its midpoint.

The record behind these values is patent US20250340565A1, “CD73 INHIBITOR COMPOUNDS” (AdoRx Therapeutics Limited, priority 2022, published 2025).
